From patent publication US20150315202A1, “CHLORIN DERIVATIVE USEFUL IN PHOTODYNAMIC THERAPY AND DIAGNOSIS” (RMW CHO GROUP LIMITED, priority 2012, published 2015)
Entries after “also recorded” stand apart in the source; their conditions may differ. Where two headings read alike, the source gives them in different places.

Tests used:
S180 sarcoma = experiment: Photodynamic therapy study with mice with subcutaneous S180 sarcoma; assay type: in vivo, Kunming mice; conditions: for Pathological changes of tumour tissues (HE staining): 24 hours after the treatment; for Living tumour cells versus control group D (FCM) / Proportions of apoptotic and necrotic tumour cells versus control group D (FCM): 24 hours after treatments; for Mean tumour volume versus control group D: 21 days after the treatments, P<0.05; for Tumour appearance after treatment (eschars): after treatments; for Sizes of tumours versus control group D: six days after the treatments; for Tumour inhibition rate: tail vein: Duteroporphyrin 10 mg/kg, chlorin e4 sodium 20 mg/kg, 5-ALA 100 mg/kg, laser 20 minutes, 180 J/cm^2
Description: In this experiment the effects of photodynamic therapy mediated by three different photosensitizers, namely Duteroporphyrin, chlorin e4 sodium and 5-ALA, on mouse S180 sarcoma were observed. Duteroporphyrin and 5-ALA are porphyrin derivatives.
40 Kunming mice with well grown subcutaneous S180 sarcoma were randomly divided into four groups: (A) Duteroporphyrin group (10 mg/kg), (B) chlorin e4 sodium group (20 mg/kg), (C) 5-ALA group (100 mg/kg) and (D) blank control group. The mice in groups A and B were subjected to irradiation 8-10 hours after tail vein injection of the photo sensitizers, while the mice in group C were subjected to irradiation 3 hours after tail vein injection of the photosensitizer. A laser with a wavelength of 630 nm was used for groups A and C, while a duel-frequency laser with wavelengths of 660 nm and 760 nm was used for group B. The local tumour sites were irradiated vertically, with the diameter of the laser spots being 1.2-1.5 cm. The whole tumour and 3-5 mm of normal tissue around the tumour were covered by the laser. The lasers were applied to groups A, B and C for 20 minutes, with a power density of 150 mW/cm^2 and an energy density of 180 J/cm^2. The mice in control group D were not subjected to irradiation.

[1] = treatment of various human ailments; cited from earlier work
[2] = literature value of the reference, cited from earlier work
[3] = air-saturated water and ethanol; literature value of the reference; cited from earlier work
[4] = system: indomethacin-induced gastric lesions; conditions: rats; cited from earlier work
[5] = system: TAA- or CCl4-induced acute liver injuries; conditions: mice; cited from earlier work
[6] = system: advanced non-small cell lung cancer; experiment: Clinical study with patients suffering from advanced non-small cell lung cancer; assay type: in vivo, human
Description: Through pathology or cytology diagnosis, 66 advanced non-small cell lung cancer patients were selected and randomly divided into two groups. Group A had 32 patients who were treated with chlorin e4 sodium. Group B had 34 patients who were treated with both chemotherapy and radiotherapy.
For group A, chlorin e4 sodium was administered at a dosage of 2 mg per kilogram of body weight, with two thirds administered by inhalation and one third administered orally. After the irradiation target(s) had been determined, an optical fibre for laser treatment purposes was guided into the lung tumor(s) via an interstitial procedure. Irradiation light intensity was 200 J/cm^2, irradiation power was 1,000 mW, and irradiation lasted for eight to ten minutes. Laser irradiation into the tumor was two to five centimeters in depth. Irradiation was either performed phase by phase (sub-paragraph treatment) based on tumor size or performed repeatedly.
For group B, for the radiotherapy, a 15 MV X-ray radiation therapy irradiation field covered primary lung tumor lesion(s) and mediastinal lymphatic drainage area, with a dosage of 65-70 Gy, administered on every first day in a week of radiotherapy. For the chemotherapy, 20 mg cisplatin was administered by intravenous application.

[7] = group A (32 patients): chlorin e4 sodium 2 mg/kg inhalation and oral + interstitial laser, group B (34 patients): cisplatin 20 mg iv + radiotherapy

Compound | Pathological changes of tumour tissues (HE staining) (S180 sarcoma) | Living tumour cells versus control group D (FCM) (S180 sarcoma) | Proportions of apoptotic and necrotic tumour cells versus control group D (FCM) (S180 sarcoma) | Mean tumour volume versus control group D (S180 sarcoma) | Tumour appearance after treatment (eschars) (S180 sarcoma) | Sizes of tumours versus control group D (S180 sarcoma) | Tumour inhibition rate (S180 sarcoma) | other results
NCC(=O)CCC(=O)O [5-ALA] | a wide range of tumour necrosis, tumour vascular disruption and neutrophil infiltration | obviously fewer | a lot higher | statistically significantly smaller | thinner and brownish red in colour | no obvious difference | 37.2% | Recovery of skins and fur (S180 sarcoma; after the eschars had fallen off): fully recovered; also recorded: fastest in skin repairing
tri-sodium copper(II) chlorin e6 | – | – | – | – | – | – | – | Toxicity and side effects [1]: no evidence of toxicity, skin sensitization or other serious side effects
O=S(=O)(O)c1ccc(-c2c3nc(c(-c4ccc(S(=O)(=O)O)cc4)c4ccc([nH]4)c(-c4ccc(S(=O)(=O)O)cc4)c4nc(c(-c5ccc(S(=O)(=O)O)cc5)c5ccc2[nH]5)C=C4)C=C3)cc1 [TPPS, m-tetrakis(p-sulfonatophenyl)porphine] | – | – | – | – | – | – | – | Quantum yield of singlet oxygen photogeneration ([2]; ethanol and detergent containing water): 0.7; Quantum yield of singlet oxygen photogeneration ([2]; water): 0.6; Fluorescence quantum yield [3]: 0.08
C=Cc1c(C)c2cc3nc(c(C)c4[nH]c(cc5nc(cc1[nH]2)C(C)=C5CC)c(C)c4C(=O)O)[C@@H](CCC(=O)O)[C@@H]3C [chlorin e4] | – | – | – | – | – | – | – | Effect against indomethacin-induced gastric lesions [4]: protective effect; Effect against TAA- or CCl4-induced acute liver injuries [5]: protective effect
CC1=Cc2cc3[nH]c(cc4nc(cc5[nH]c(cc1n2)cc5C)C(C)=C4CCC(=O)O)c(CCC(=O)O)c3C [Duteroporphyrin] | a wide range of tumour necrosis, tumour vascular disruption and neutrophil infiltration | obviously fewer | a lot higher | statistically significantly smaller | Black eschars | no obvious difference | 62.5% | Recovery of skins and fur (S180 sarcoma; mouse, in vivo): fully recovered
N.N.[Cl][Pt][Cl] [cisplatin, reference compound] | – | – | – | – | – | – | – | One year survival rate [6, 7]: 70.60%; Two years survival rate [6, 7]: 32.35%; Combined complete and partial remission rate ([6]; group A: chlorin e4 sodium 2 mg/kg + interstitial laser, group B: cisplatin 20 mg iv + radiotherapy): 21.30%
